The target of the test is T1, human mAChR M4 (Homo sapiens, UniProt P08173).
T1 sequence (P08173 1-479): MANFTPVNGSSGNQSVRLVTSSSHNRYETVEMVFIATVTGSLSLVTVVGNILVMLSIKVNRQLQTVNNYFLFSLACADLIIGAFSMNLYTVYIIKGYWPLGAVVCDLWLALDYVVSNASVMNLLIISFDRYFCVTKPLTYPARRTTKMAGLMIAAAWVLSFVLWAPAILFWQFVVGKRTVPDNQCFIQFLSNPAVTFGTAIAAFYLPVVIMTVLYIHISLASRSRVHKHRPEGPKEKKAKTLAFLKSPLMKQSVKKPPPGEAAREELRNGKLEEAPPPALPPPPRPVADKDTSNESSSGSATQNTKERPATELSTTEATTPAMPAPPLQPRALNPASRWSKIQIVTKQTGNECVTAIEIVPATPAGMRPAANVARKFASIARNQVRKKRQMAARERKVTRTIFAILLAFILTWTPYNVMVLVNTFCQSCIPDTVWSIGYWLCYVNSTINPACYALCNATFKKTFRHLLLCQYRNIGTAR
Kind of test: mAChR M4 cell-based functional assay (calcium flux), human M4. Particulars: Table 10; for EC50: Human M4 EC50 (nM), calcium flux, PAM activity with EC20 acetylcholine; for Emax: % ACh maximum at 30 μM. (A change in cytosolic calcium serves as a functional read-out for many receptors and channels.)

29 molecules from patent US10239887B2, “Positive allosteric modulators of the muscarinic acetylcholine receptor M4” (Vanderbilt University, priority 2016, dated 2019) can be followed below.

With `Cc1nnc2sc3c(NCc4ccc(F)c(C(C)(C)O)c4)ncnc3c2c1C` [Compound 175, 2-[5-[[(3,4-dimethylpyrimido [4′,5′:4,5]thieno[2,3-c]pyridazin-8-yl)amino]methyl]-2-fluoro-phenyl]propan-2-ol], the concentration giving a half-maximal response (EC50) (usually the midpoint of the concentration-response curve) came to 722 nM and the Emax (commonly the greatest response seen or fitted, relative to the assay's reference) is 52.5%.
For `Cc1nnc2sc3c(NCc4ccc(F)c(C(=O)NC5CC5)c4)ncnc3c2c1C` [Compound 176, N-cyclopropyl-5-[[(3,4-dimethylpyrimido [4′,5′:4,5]thieno[2,3-c]pyridazin-8-yl)amino]methyl]-2-fluoro-benzamide], the EC50 worked out at 511 nM and the Emax was 105%.
For `Cc1nnc2sc3c(NCc4ccc(F)c(C(=O)NC5CCC5)c4)ncnc3c2c1C` [Compound 177, N-cyclobutyl-5-[[(3,4-dimethylpyrimido [4′,5′:4,5]thieno[2,3-c]pyridazin-8-yl)amino]methyl]-2-fluoro-benzamide], the EC50 was determined as 570 nM and the Emax was found to be 98.5%.
On the same counts, the results for `Cc1nnc2sc3c(NCc4ccc(F)c(C(=O)NC5CCCC5)c4)ncnc3c2c1C` [Compound 178, N-cyclopentyl-5-[[(3,4-dimethylpyrimido [4′,5′:4,5]thieno[2,3-c]pyridazin-8-yl)amino]methyl]-2-fluoro-benzamide] are 1030 nM and 97.1%.
For `Cc1nnc2sc3c(NCc4ccc(F)c(C(=O)NC(C)C)c4)ncnc3c2c1C` [Compound 179, 5-[[(3,4-dimethylpyrimido [4′,5′:4,5]thieno[2,3-c]pyridazin-8-yl)amino]methyl]-2-fluoro-N-isopropyl-benzamide] the same measures were 748 nM and 95.2%.
As to `Cc1nnc2sc3c(NCc4ccc(F)c(C(=O)NCC(C)C)c4)ncnc3c2c1C` [Compound 180, 5-[[(3,4-dimethylpyrimido [4′,5′:4,5]thieno[2,3-c]pyridazin-8-yl)amino]methyl]-2-fluoro-N-isobutyl-benzamide], the half-maximal effective concentration (EC50) turned out to be 1210 nM and the Emax came out at 97.6%.
On the same counts, the results for `Cc1nnc2sc3c(NCc4ccc(F)c(C(=O)NC5CC5(C)C)c4)ncnc3c2c1C` (stereo not drawn) [Compound 181, N-(2,2-dimethylcyclopropyl)-5-[[(3,4-dimethylpyrimido [4′,5′:4,5]thieno[2,3-c]pyridazin-8-yl)amino]methyl]-2-fluoro-benzamide] are 1160 nM and 96.5%.
For `Cc1nnc2sc3c(NCc4ccc(F)c(C(=O)N[C@H](C)C(F)(F)F)c4)ncnc3c2c1C` [Compound 182, 5-[[(3,4-dimethylpyrimido [4′,5′:4,5]thieno[2,3-c]pyridazin-8-yl)amino]methyl]-2-fluoro-N-[(1R)-2,2,2-trifluoro-1-methyl-ethyl]benzamide], the EC50 was 1170 nM and the Emax is 97.2%.
For the molecule `Cc1nnc2sc3c(NCc4ccc(F)c(C(=O)NC5CC(F)C5)c4)ncnc3c2c1C` (stereo not drawn) [Compound 183, 5-[[(3,4-dimethylpyrimido [4′,5′:4,5]thieno[2,3-c]pyridazin-8-yl)amino]methyl]-2-fluoro-N-(3-fluorocyclobutyl) benzamide], the EC50 was determined as 505 nM and the Emax was 99.7%.
For `Cc1nnc2sc3c(NCc4ccc(F)c(C(=O)NC5CC(F)(F)C5)c4)ncnc3c2c1C` [Compound 184, N-(3,3-difluorocyclobutyl)-5-[[(3,4-dimethylpyrimido [4′,5′:4,5]thieno[2,3-c]pyridazin-8-yl)amino]methyl]-2-fluoro-benzamide] the same measures were 340 nM and 107%.
On the same counts, the results for `Cc1nnc2sc3c(NCc4ccc(F)c(C(=O)NC(C)C(C)(C)CO)c4)ncnc3c2c1C` (stereo not drawn) [Compound 185, 5-[[(3,4-dimethylpyrimido [4′,5′:4,5]thieno[2,3-c]pyridazin-8-yl)amino]methyl]-2-fluoro-N-(3-hydroxy-1,2,2-trimethyl-propyl)benzamide] are 794 nM and 94.2%.
For the molecule `COCCNC(=O)c1cc(CNc2ncnc3c2sc2nnc(C)c(C)c23)ccc1F` [Compound 186, 5-[[(3,4-dimethylpyrimido [4′,5′:4,5]thieno[2,3-c]pyridazin-8-yl)amino]methyl]-2-fluoro-N-(2-methoxyethyl)benzamide], the EC50 was determined as 687 nM and the Emax came out at 86.8%.
On the same counts, the results for `CNC(=O)c1cc(CNc2ncnc3c2sc2nnc(C)c(C)c23)ccc1F` [Compound 187, 5-[[(3,4-dimethylpyrimido [4′,5′:4,5]thieno[2,3-c]pyridazin-8-yl)amino]methyl]-2-fluoro-N-methyl-benzamide] are 154 nM and 87.6%.
With `Cc1nnc2sc3c(NCc4ccc(C(C)(C)O)c(Cl)c4)ncnc3c2c1C` [Compound 188, 2-[2-chloro-4-[[(3,4-dimethylpyrimido [4′,5′:4,5]thieno[2,3-c]pyridazin-8-yl)amino]methyl]phenyl]propan-2-ol], the 50% effective concentration (EC50) was 775 nM and the maximal response (Emax) was determined as 79.8%.
For `Cc1nnc2sc3c(NCc4ccc(C(C)(C)O)cc4Cl)ncnc3c2c1C` [Compound 189, 2-[3-chloro-4-[[(3,4-dimethylpyrimido [4′,5′:4,5]thieno[2,3-c]pyridazin-8-yl)amino]methyl]phenyl]propan-2-ol] the same measures were 831 nM and 94.3%.
Consider `Cc1nnc2sc3c(NCc4ccc(-c5cccs5)cc4)ncnc3c2c1C` [Compound 190, 3,4-dimethyl-N-[[4-(2-thienyl)phenyl]methyl] pyrimido[4′,5′:4,5]thieno [2,3-c]pyridazin-8-amine], for which the EC50 was determined as 3210 nM and the maximum response (Emax) came to 90.8%.
On the same counts, the results for `Cc1nnc2sc3c(NCc4ccc(-c5ccc[nH]5)cc4)ncnc3c2c1C` [Compound 191, 3,4-dimethyl-N-[[4-(1H-pyrrol-2-yl)phenyl]methyl]pyrimido[4′,5′:4,5] thieno[2,3-c]pyridazin-8-amine] are 837 nM and 56.9%.
In the case of `Cc1nnc2sc3c(NCc4ccc(-c5ccn(C)n5)cc4)ncnc3c2c1C` [Compound 192, 3,4-dimethyl-N-[[4-(1-methylpyrazol-3-yl)phenyl]methyl]pyrimido [4′,5′:4,5]thieno[2,3-c] pyridazin-8-amine], the EC50 is 851 nM and the maximal effect (Emax) came out at 85.9%.
For `Cc1nnc2sc3c(NCc4ccc(-c5ccnn5C)cc4)ncnc3c2c1C` [Compound 193, 3,4-dimethyl-N-[[4-(2-methylpyrazol-3-yl)phenyl]methyl]pyrimido [4′,5′:4,5]thieno[2,3-c] pyridazin-8-amine], the concentration for a half-maximal effect (EC50) came to 439 nM and the Emax came to 82%.
As to `COCC1CN(c2ncnc3c2sc2nc(C)cc(C)c23)C1` [Compound 194, 4-[3-(methoxymethyl)azetidin-1-yl]-7.9-dimethyl-pyrido [3′,2′:4,5]thieno[3,2-d] pyrimidine], the 50% effective concentration (EC50) is 762 nM and the maximum response (Emax) was 88.7%.
As for `Cc1cc(C)c2c(n1)sc1c(N3CC4(COC4)C3)ncnc12` [Compound 195, 6-(7,9-dimethylpyrido [3′,2′:4,5]thieno[3,2-d]pyrimidin-4-yl)-2-oxa-6-azaspiro[3.3]heptane], the maximal response (Emax) was found to be 76.3%.
As for `Cc1cc(C)c2c(n1)sc1c(N3CC4CC4C3)ncnc12` (stereo not drawn) [Compound 196, 4-(3-azabicyclo [3.1.0]hexan-3-yl)-7,9-dimethyl-pyrido [3′,2′:4,5]thieno[3,2-d] pyrimidine], the half-maximal effective concentration (EC50) amounted to 453 nM and the Emax is 74.5%.
For `Cc1cc(C)c2c(n1)sc1c(N3CCC3)ncnc12` [Compound 197, 4-(azetidin-1-yl)-7,9-dimethyl-pyrido [3′,2′:4,5]thieno[3,2-d] pyrimidine] the same measures were 172 nM and 58.7%.
On to `Cc1cc(C)c2c(n1)sc1c(N3CC(F)(F)C3)ncnc12` [Compound 198, 4-(3,3-difluoroazetidin-1-yl)-7,9-dimethyl-pyrido[3′,2′:4,5] thieno[3,2-d]pyrimidine], for which the EC50 came out at 456 nM and the Emax worked out at 68.7%.
As to `Cc1cc(C)c2c(n1)sc1c(N3CCCC3)ncnc12` [Compound 199, 7,9-dimethyl-4-pyrrolidin-1-yl-pyrido[3′,2′:4,5] thieno[3,2-d]pyrimidine], the EC50 amounted to 277 nM and the maximum response (Emax) stood at 67.3%.
Turning to `Cc1cc(C)c2c(n1)sc1c(NC3CCC3)ncnc12` [Compound 200, N-cyclobutyl-7,9-dimethyl-pyrido [3′,2′:4,5]thieno[3,2-d] pyrimidin-4-amine], the EC50 came to 359 nM and the Emax was 75.5%.
Take `Cc1cc(C)c2c(n1)sc1c(N3CC(c4ccncc4)C3)ncnc12` [Compound 201, 7,9-dimethyl-4-[3-(4-pyridyl)azetidin-1-yl] pyrido[3′,2′:4,5]thieno [3,2-d]pyrimidine]: the EC50 was determined as 341 nM and the Emax is 66.5%.
For `COc1ccc(C2CC2Nc2ncnc3c2sc2nc(C)cc(C)c23)cc1` (stereo not drawn) [Compound 202, N-[2-(4-methoxyphenyl)cyclopropyl]-7,9-dimethyl-pyrido [3′,2′:4,5]thieno[3,2-d] pyrimidin-4-amine] the same measures were 1640 nM and 61.1%.
Consider `Cc1cc(C)c2c(n1)sc1c(NCc3ccc(OC(F)F)nc3)ncnc12` [Compound 203, N-[[6-(difluoromethoxy)-3-pyridyl]methyl]-7.9-dimethyl-pyrido[3′,2′:4,5] thieno[3,2-d]pyrimidin-4-amine], for which the concentration for a half-maximal effect (EC50) was found to be 4010 nM and the Emax was determined as 44.5%.
